Assay results taken from ChEMBL document CHEMBL1128692, “Peptidomimetic inhibitors of herpes simplex virus ribonucleotide reductase: a new class of antiviral agents” (J Med Chem, 1995).
Non-standard residues stand in square brackets, D forms with d. Residues, ends and D or L forms follow the SMILES beside them. *: point of attachment. Asp(3,3-(CH2)4) = N[C@H](C(=O)O)C1(C(=O)O)CCCC1; Dibenzylacetyl = O=C(C(Cc1ccccc1)Cc1ccccc1)*; Leu(γ-Me)ol = CC(C)(C)C[C@@H](CO)N*; Hydrocinnamoyl = O=C(CCc1ccccc1)*; tBuAla = CC(C)(C)C[C@H](N)C(=O)O; Butanoyl(2-Et) = CCC(CC)C(=O)*; Chg = N[C@H](C(=O)O)C1CCCCC1; Tle = CC(C)(C)[C@H](N)C(=O)O; NMeV = CN[C@H](C(=O)O)C(C)C; Leu(ol) = CC(C)C[C@H](N)CO; Pyrrolidide = C1CCN(*)C1; Abu = CC[C@H](N)C(=O)O

What was measured:
[1] = molecular target: Ribonucleotide reductase large subunit (Herpes simplex virus 1); test: In vitro inhibitory activity against HSV ribonucleotide reductase
[2] = molecular target: Ribonucleotide reductase large subunit (Herpes simplex virus 1); test: Inhibitory activity against HSV-1 in baby hamster kidney cell
[3] = molecular target: Ribonucleotide reductase large subunit (Herpes simplex virus 2); test: Inhibitory activity against HSV-2 in baby hamster kidney cell

IC50 [1]	EC50 [2]	EC50 [3]	SMILES
11 µM	–	–	CC(C)C[C@H](NC(=O)[C@H](CC(=O)O)NC(=O)[C@H](CC(N)=O)NC(=O)[C@@H](NC(=O)[C@@H](NC(=O)[C@@H](C)Cc1ccccc1)C(C)C)C(C)C)C(=O)O
0.0064 µM	–	–	CCC(CC)C(=O)N[C@H](C(=O)N[C@@H](CC(=O)N1CCCC1)C(=O)N[C@H](C(=O)N[C@@H](CC(C)C)C(=O)O)C1(C(=O)O)CC=CC1)C(C)(C)C
0.86 µM	–	–	CC(C)C[C@H](NC(=O)[C@H](CC(=O)O)NC(=O)[C@H](CC(N)=O)NC(=O)[C@@H](NC(=O)[C@@H](NC(=O)[C@H](C)Cc1ccccc1)C(C)C)C(C)C)C(=O)O
0.18 µM	–	–	CC(C)C[C@H](NC(=O)[C@H](CC(=O)O)NC(=O)[C@H](CC(N)=O)NC(=O)[C@@H](NC(=O)[C@@H](NC(=O)C(Cc1ccccc1)Cc1ccccc1)C(C)C)C(C)C)C(=O)O
4 µM	–	–	CC(C)C[C@H](NC(=O)[C@H](CC(=O)O)NC(=O)[C@H](CC(N)=O)NC(=O)[C@@H](NC(=O)[C@@H](NC(=O)CCc1ccccc1)C(C)C)C(C)C)C(=O)O
0.022 µM	–	–	CC(C)C[C@H](NC(=O)[C@H](CC(=O)O)NC(=O)[C@H](CC(N)=O)NC(=O)[C@@H](NC(=O)[C@H](C(C)C)N(C)C(=O)C(Cc1ccccc1)Cc1ccccc1)C(C)C)C(=O)O
0.88 µM	–	–	CC(=O)N[C@H](C(=O)N[C@H](C(=O)N[C@@H](CC(=O)N1CCCC1)C(=O)N[C@@H](CC(=O)O)C(=O)N[C@@H](CC(C)C)C(=O)O)C(C)C)C(C)C (Ac-VVD(Pyrrolidide)DL-OH)
0.0007 µM	–	–	CC(C)C[C@H](NC(=O)[C@H](CC(=O)O)NC(=O)[C@H](CC(=O)N1CCCC1)NC(=O)[C@@H](NC(=O)[C@@H](NC(=O)C(Cc1ccccc1)Cc1ccccc1)C(C)C)C(C)C)C(=O)O (Dibenzylacetyl-VVD(Pyrrolidide)DL-OH)
–	12 µM	14 µM	CC(C)[C@H](NC(=O)C(Cc1ccccc1)Cc1ccccc1)C(=O)N[C@H](C(=O)N[C@@H](CC(=O)N1CCCC1)C(=O)N[C@H](C(=O)N[C@H](CO)CC(C)(C)C)C1(C(=O)O)CCCC1)C(C)(C)C (Dibenzylacetyl-V[Tle]D(Pyrrolidide)[Asp(3,3-(CH2)4)]-{Leu(γ-Me)ol})
–	7 µM	6.5 µM	CC(C)[C@H](NC(=O)[C@H](C(C)C)N(C)C(=O)C(Cc1ccccc1)Cc1ccccc1)C(=O)N[C@@H](CC(=O)N1CCCC1)C(=O)N[C@H](C(=O)N[C@H](CO)CC(C)(C)C)C1(C(=O)O)CCCC1 (Dibenzylacetyl-[NMeV]VD(Pyrrolidide)[Asp(3,3-(CH2)4)]-{Leu(γ-Me)ol})
–	30 µM	39 µM	CC(C)[C@@H](C(=O)N[C@H](C(=O)N[C@@H](CC(=O)N1CCCC1)C(=O)N[C@@H](CC(=O)O)C(=O)N[C@H](CO)CC(C)(C)C)C(C)(C)C)N(C)C(=O)C(Cc1ccccc1)Cc1ccccc1 (Dibenzylacetyl-[NMeV][Tle]D(Pyrrolidide)D-{Leu(γ-Me)ol})
–	3.1 µM	4.2 µM	CC(C)[C@@H](C(=O)N[C@H](C(=O)N[C@@H](CC(=O)N1CCCC1)C(=O)N[C@H](C(=O)N[C@H](CO)CC(C)(C)C)C1(C(=O)O)CCCC1)C(C)(C)C)N(C)C(=O)C(Cc1ccccc1)Cc1ccccc1 (Dibenzylacetyl-[NMeV][Tle]D(Pyrrolidide)[Asp(3,3-(CH2)4)]-{Leu(γ-Me)ol})
–	7.3 µM	7.3 µM	CC(C)C[C@@H](CO)NC(=O)[C@@H](NC(=O)[C@H](CC(=O)N1CCCC1)NC(=O)[C@@H](NC(=O)[C@H](C(C)C)N(C)C(=O)C(Cc1ccccc1)Cc1ccccc1)C(C)(C)C)C1(C(=O)O)CCCC1 (Dibenzylacetyl-[NMeV][Tle]D(Pyrrolidide)[Asp(3,3-(CH2)4)][Leu(ol)])
–	35 µM	30 µM	CC(C)[C@@H](C(=O)N[C@H](C(=O)N[C@@H](CC(=O)N1CCCC1)C(=O)N[C@H](C(=O)N[C@@H](CC(C)(C)C)C(=O)O)C1(C(=O)O)CCCC1)C(C)(C)C)N(C)C(=O)C(Cc1ccccc1)Cc1ccccc1 (Dibenzylacetyl-[NMeV][Tle]D(Pyrrolidide)[Asp(3,3-(CH2)4)][tBuAla]-OH)
–	150 µM	150 µM	CC(C)[C@@H](C(=O)N[C@H](C(=O)N[C@@H](CC(N)=O)C(=O)N[C@H](C(=O)N[C@H](CO)CC(C)(C)C)C1(C(=O)O)CCCC1)C(C)(C)C)N(C)C(=O)C(Cc1ccccc1)Cc1ccccc1 (Dibenzylacetyl-[NMeV][Tle]N[Asp(3,3-(CH2)4)]-{Leu(γ-Me)ol})
8.8 µM	–	–	CC(C)C[C@H](NC(=O)[C@H](CC(=O)O)NC(=O)[C@H](CC(=O)N1CCCC1)NC(=O)[C@@H](NC(=O)[C@H](C)NC(=O)CCc1ccccc1)C(C)C)C(=O)O (Hydrocinnamoyl-AVD(Pyrrolidide)DL-OH)
115 µM	–	–	CC(C)C[C@H](NC(=O)[C@H](CC(=O)O)NC(=O)[C@H](CC(=O)N1CCCC1)NC(=O)[C@@H](NC(=O)CNC(=O)CCc1ccccc1)C(C)C)C(=O)O (Hydrocinnamoyl-GVD(Pyrrolidide)DL-OH)
0.061 µM	–	–	CC[C@H](C)[C@H](NC(=O)CCc1ccccc1)C(=O)N[C@H](C(=O)N[C@@H](CC(=O)N1CCCC1)C(=O)N[C@@H](CC(=O)O)C(=O)N[C@@H](CC(C)C)C(=O)O)C(C)C (Hydrocinnamoyl-IVD(Pyrrolidide)DL-OH)
0.034 µM	–	–	CC(C)[C@H](NC(=O)CCc1ccccc1)C(=O)N[C@H](C(=O)N[C@@H](CC(=O)N1CCCC1)C(=O)N[C@@H](CC(=O)O)C(=O)N[C@H](CO)CC(C)(C)C)C(C)C (Hydrocinnamoyl-VVD(Pyrrolidide)D-{Leu(γ-Me)ol})
0.024 µM	–	–	CC(C)C[C@H](NC(=O)[C@H](CC(=O)O)NC(=O)[C@H](CC(=O)N1CCCC1)NC(=O)[C@@H](NC(=O)[C@@H](NC(=O)CCc1ccccc1)C(C)C)C(C)C)C(=O)O (Hydrocinnamoyl-VVD(Pyrrolidide)DL-OH)
0.005 µM	–	–	CC(C)[C@H](NC(=O)CCc1ccccc1)C(=O)N[C@H](C(=O)N[C@@H](CC(=O)N1CCCC1)C(=O)N[C@@H](CC(=O)O)C(=O)N[C@@H](CC(C)(C)C)C(=O)O)C(C)C (Hydrocinnamoyl-VVD(Pyrrolidide)D[tBuAla]-OH)
0.001 µM	–	–	CC(C)C[C@H](NC(=O)[C@@H](NC(=O)[C@H](CC(=O)N1CCCC1)NC(=O)[C@@H](NC(=O)[C@@H](NC(=O)CCc1ccccc1)C(C)C)C(C)C)C1(C(=O)O)CCCC1)C(=O)O (Hydrocinnamoyl-VVD(Pyrrolidide)[Asp(3,3-(CH2)4)]L-OH)
0.004 µM	–	–	CC(C)C[C@H](NC(=O)[C@H](CC(=O)O)NC(=O)[C@H](CC(=O)N1CCCC1)NC(=O)[C@@H](NC(=O)[C@@H](NC(=O)CCc1ccccc1)C(C)C)C(C)(C)C)C(=O)O (Hydrocinnamoyl-V[Tle]D(Pyrrolidide)DL-OH)
0.34 µM	–	–	CC[C@H](NC(=O)CCc1ccccc1)C(=O)N[C@H](C(=O)N[C@@H](CC(=O)N1CCCC1)C(=O)N[C@@H](CC(=O)O)C(=O)N[C@@H](CC(C)C)C(=O)O)C(C)C (Hydrocinnamoyl-[Abu]VD(Pyrrolidide)DL-OH)
0.022 µM	–	–	CC(C)C[C@H](NC(=O)[C@H](CC(=O)O)NC(=O)[C@H](CC(=O)N1CCCC1)NC(=O)[C@@H](NC(=O)[C@@H](NC(=O)CCc1ccccc1)C1CCCCC1)C(C)C)C(=O)O (Hydrocinnamoyl-[Chg]VD(Pyrrolidide)DL-OH)
0.0075 µM	–	–	CC(C)C[C@H](NC(=O)[C@H](CC(=O)O)NC(=O)[C@H](CC(=O)N1CCCC1)NC(=O)[C@@H](NC(=O)[C@H](C(C)C)N(C)C(=O)CCc1ccccc1)C(C)C)C(=O)O (Hydrocinnamoyl-[NMeV]VD(Pyrrolidide)DL-OH)
–	52 µM	35 µM	CC(C)[C@@H](C(=O)N[C@H](C(=O)N[C@@H](CC(=O)N1CCCC1)C(=O)N[C@H](C(=O)N[C@H](CO)CC(C)(C)C)C1(C(=O)O)CCCC1)C(C)(C)C)N(C)C(=O)CCc1ccccc1 (Hydrocinnamoyl-[NMeV][Tle]D(Pyrrolidide)[Asp(3,3-(CH2)4)]-{Leu(γ-Me)ol})
0.036 µM	–	–	CC(C)C[C@H](NC(=O)[C@H](CC(=O)O)NC(=O)[C@H](CC(=O)N1CCCC1)NC(=O)[C@@H](NC(=O)[C@@H](NC(=O)CCc1ccccc1)C(C)(C)C)C(C)C)C(=O)O (Hydrocinnamoyl-[Tle]VD(Pyrrolidide)DL-OH)
0.86 µM	–	–	CCC(CC)C(=O)N[C@H](C(=O)N[C@@H](CC(=O)N1CCCC1)C(=O)N[C@@H](CC(=O)O)C(=O)N[C@@H](CC(C)C)C(=O)O)C(C)C ({Butanoyl(2-Et)}-VD(Pyrrolidide)DL-OH)
